The Kinase Knowledgebase extract (Sharma et al. 2016)
“And” between values parts separate entries of the source, which are not always exact repeats. Equal values may be shown once.

How the values were obtained:
[1] = molecular target: EGFR (UniProt P00533)
[2] = molecular target: EGFR (UniProt P00533); remark: listed apart in the source
[3] = molecular target: EGFR (human) (UniProt P00533)
[4] = molecular target: EGFR (UniProt P00533); remark: listed apart in the source
[5] = molecular target: EGFR (UniProt P00533); remark: listed apart in the source
[6] = molecular target: EGFR (UniProt P00533); remark: listed apart in the source
[7] = molecular target: EGFR (UniProt P00533); remark: listed apart in the source
[8] = molecular target: EGFR (UniProt P00533); conditions: a431
[9] = molecular target: EGFR (UniProt P00533); conditions: swiss 3t3 fibroblast
[10] = molecular target: EGFR (murine) (UniProt P00533); conditions: nih3t3
[11] = molecular target: PIK3CA (bovine) (UniProt P32871); experiment: Inhibition of PIK3CA Kinase Activity
[12] = molecular target: EGFR (UniProt P00533); remark: listed apart in the source
[13] = molecular target: MAPK14 (UniProt Q16539); experiment: p38 MAP kinase Inhibition Assay
[14] = molecular target: PIK3CA (human) (UniProt P42336); experiment: Antiproliferation of NZB5 Cell Line Using Thymidine Depletion Assay
[15] = molecular target: PIK3CA (human) (UniProt P42336); experiment: Antiproliferation of NZOV9 Cell Line Using Thymidine Depletion Assay
[16] = molecular target: EGFR (UniProt P00533); remark: listed apart in the source
[17] = molecular target: EGFR (human) (UniProt P00533); remark: listed apart in the source
[18] = molecular target: EGFR (human) (UniProt P00533); conditions: A431
[19] = molecular target: PIK3CB;PIK3CG;PIK3CD;PIK3CA (human) (UniProt P48736); experiment: Antiproliferation of Anti-IgM stimulated Human B Cells by PI3K Inhibitors
[20] = molecular target: EGFR (human) (UniProt P00533); conditions: concentration not given here
[21] = molecular target: MAPK14 (human) (UniProt Q16539); experiment: Inhibition of TNF-alpha Production in LPS Stimulated Whole Blood; conditions: blood cells
[22] = molecular target: MAPK14 (human) (UniProt Q16539); experiment: Inhibition of IL-beta Production in LPS Stimulated Whole Blood; conditions: blood cells
[23] = molecular target: MAPK14 (human) (UniProt Q16539); experiment: Inhibition of TNF-alpha Production in PBMC Cells
[24] = molecular target: EGFR (UniProt P00533); remark: listed apart in the source
[25] = molecular target: EGFR (UniProt P00533); remark: listed apart in the source
[26] = molecular target: CDK2 (UniProt P24941); experiment: Enzyme Assay; conditions: concentration not given here
[27] = molecular target: MAPK14 (UniProt Q16539); experiment: p38-alpha Kinase Inhibition; conditions: concentration not given here
[28] = molecular target: ROCK2 (UniProt O75116); experiment: ROCK2 Kinase Inhibition; conditions: concentration not given here
[29] = molecular target: EGFR (mouse) (UniProt P00533); conditions: mk
[30] = molecular target: MAPK14 (UniProt Q16539); experiment: p38-alpha Inhibition

Chain of MAPK14 (Q16539 whole entry, looked up): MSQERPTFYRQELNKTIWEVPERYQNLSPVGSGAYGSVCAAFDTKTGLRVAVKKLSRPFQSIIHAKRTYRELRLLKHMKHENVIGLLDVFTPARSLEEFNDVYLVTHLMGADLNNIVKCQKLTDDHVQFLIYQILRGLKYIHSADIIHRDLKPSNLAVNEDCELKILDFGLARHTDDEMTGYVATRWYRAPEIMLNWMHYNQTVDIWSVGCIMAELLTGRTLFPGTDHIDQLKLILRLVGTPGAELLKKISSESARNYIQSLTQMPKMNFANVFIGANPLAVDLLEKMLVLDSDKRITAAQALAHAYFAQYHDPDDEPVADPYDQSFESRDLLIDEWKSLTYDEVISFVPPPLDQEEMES
Chain of MAPK14 (human) (Q16539 whole entry, looked up): as above
Chain of PIK3CA (bovine) (P32871 whole entry, looked up): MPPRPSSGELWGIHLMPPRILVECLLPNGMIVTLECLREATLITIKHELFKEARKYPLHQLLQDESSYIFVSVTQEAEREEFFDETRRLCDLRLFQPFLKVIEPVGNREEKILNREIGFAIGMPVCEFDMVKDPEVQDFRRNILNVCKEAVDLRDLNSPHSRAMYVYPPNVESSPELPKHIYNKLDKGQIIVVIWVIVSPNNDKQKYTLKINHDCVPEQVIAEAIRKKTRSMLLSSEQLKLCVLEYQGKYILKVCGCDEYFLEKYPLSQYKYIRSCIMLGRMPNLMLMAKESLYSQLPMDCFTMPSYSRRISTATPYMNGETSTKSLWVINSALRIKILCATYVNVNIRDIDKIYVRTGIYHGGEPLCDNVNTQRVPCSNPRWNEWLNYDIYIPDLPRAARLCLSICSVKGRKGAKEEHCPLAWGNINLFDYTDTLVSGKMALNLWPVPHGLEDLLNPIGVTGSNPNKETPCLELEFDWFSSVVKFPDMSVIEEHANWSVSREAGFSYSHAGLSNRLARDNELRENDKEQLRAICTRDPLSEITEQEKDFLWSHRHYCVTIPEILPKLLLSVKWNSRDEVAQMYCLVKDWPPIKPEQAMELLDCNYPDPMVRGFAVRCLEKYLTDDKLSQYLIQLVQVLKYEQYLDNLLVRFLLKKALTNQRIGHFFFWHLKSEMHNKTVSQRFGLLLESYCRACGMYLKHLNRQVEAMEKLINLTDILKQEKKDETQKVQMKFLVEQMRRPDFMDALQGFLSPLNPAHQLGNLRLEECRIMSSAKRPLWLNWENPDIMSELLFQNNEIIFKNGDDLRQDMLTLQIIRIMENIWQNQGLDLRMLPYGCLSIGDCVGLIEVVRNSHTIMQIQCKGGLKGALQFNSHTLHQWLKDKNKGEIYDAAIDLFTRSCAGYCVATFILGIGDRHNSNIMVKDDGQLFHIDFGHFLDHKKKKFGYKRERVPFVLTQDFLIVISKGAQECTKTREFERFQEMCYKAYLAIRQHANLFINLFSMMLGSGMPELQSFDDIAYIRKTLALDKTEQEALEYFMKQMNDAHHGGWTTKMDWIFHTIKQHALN
Chain of EGFR (human) (P00533 whole entry, looked up): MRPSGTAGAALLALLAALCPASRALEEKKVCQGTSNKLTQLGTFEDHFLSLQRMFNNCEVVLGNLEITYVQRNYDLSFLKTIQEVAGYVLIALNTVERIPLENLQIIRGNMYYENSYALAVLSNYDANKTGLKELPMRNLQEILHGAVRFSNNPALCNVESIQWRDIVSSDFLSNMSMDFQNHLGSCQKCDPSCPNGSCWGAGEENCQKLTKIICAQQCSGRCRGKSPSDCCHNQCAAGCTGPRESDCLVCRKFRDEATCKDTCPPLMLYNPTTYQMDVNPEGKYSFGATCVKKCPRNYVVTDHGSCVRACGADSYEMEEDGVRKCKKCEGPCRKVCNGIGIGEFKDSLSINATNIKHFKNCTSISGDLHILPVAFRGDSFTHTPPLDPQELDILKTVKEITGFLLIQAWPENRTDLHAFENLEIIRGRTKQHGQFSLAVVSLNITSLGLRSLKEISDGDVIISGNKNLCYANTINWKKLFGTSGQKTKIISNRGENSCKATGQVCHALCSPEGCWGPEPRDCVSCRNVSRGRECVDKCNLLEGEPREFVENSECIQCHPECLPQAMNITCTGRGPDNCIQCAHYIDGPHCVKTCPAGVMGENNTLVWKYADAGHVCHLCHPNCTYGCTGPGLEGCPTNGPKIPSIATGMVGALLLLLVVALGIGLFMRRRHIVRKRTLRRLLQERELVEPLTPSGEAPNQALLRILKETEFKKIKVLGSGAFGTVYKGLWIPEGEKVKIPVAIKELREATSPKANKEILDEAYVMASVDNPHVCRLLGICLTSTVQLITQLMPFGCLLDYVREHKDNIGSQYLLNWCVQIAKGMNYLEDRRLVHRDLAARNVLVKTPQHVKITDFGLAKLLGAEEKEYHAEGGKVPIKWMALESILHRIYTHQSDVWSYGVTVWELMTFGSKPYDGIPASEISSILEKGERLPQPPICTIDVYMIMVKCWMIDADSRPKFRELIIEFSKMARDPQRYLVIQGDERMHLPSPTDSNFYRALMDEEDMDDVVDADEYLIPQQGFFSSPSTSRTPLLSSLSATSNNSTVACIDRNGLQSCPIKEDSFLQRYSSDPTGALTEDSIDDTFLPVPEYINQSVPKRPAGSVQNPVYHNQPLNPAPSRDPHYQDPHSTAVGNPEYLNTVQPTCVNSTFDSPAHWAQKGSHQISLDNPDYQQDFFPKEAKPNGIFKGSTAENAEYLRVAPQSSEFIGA
Chain of EGFR (P00533 whole entry, looked up): as above
Chain of PIK3CA (human) (P42336 whole entry, looked up): as the sequence (P32871 whole entry, looked up) above, with R532K, C535S counted along it

## CN(C)CCCCNc1cc2ncnc(Nc3cccc(Br)c3)c2cn1
[1]
  IC50: 38 nM

## Cc1[nH]c2ncnc(N3CCc4ccccc43)c2c1C
[2]
  IC50: 1560 nM

## Nc1ccc(-c2cc3c(N4CCc5ccccc54)ncnc3[nH]2)cc1
[2]
  IC50: 210 nM

## O=S(=O)(CCNCCCc1ccc(-c2ccc3ncnc(Nc4ccc(OCc5ccccc5)c(Cl)c4)c3c2)o1)c1ccccc1
[3]
  IC50: 50 nM

## COc1ccc(C=C2C(=O)Nc3ccccc32)cc1F
[4]
  IC50: 3700 to 37000 nM

## c1ccc2c(Nc3ccc4[nH]ccc4c3)ncnc2c1
[5]
  IC50: 300 nM

## COc1cc(OC)cc(-c2cc3cnc(NCCCN4CCN(C)CC4)nc3nc2NC(=O)NC(C)(C)C)c1
[6]
  IC50: > 50000 nM

## NC(=O)c1cc2ccc(O)c(O)c2cn1
[7]
  IC50: > 100000 nM

## COc1cc2[nH]c3c(-c4ccccc4C)nc4c(c3c2cc1OC)C(=O)NC4=O
[8]
  IC50: > 30000 nM
[9]
  IC50: > 30000 nM

## Cc1noc(C)c1C(=O)Nc1ccc(C(F)(F)F)cc1
[10]
  IC50: > 100000 nM

## c1ccc(-c2nc(N3CCOCC3)c3sc4ccccc4c3n2)cc1
[11]
  IC50: > 30000 nM

## COc1ccc(Nc2ncc3c(n2)N(c2ccccc2)C(=O)N(c2ccc(OC)cc2)C3)cc1
[12]
  IC50: 180 nM

## c1cnc2c(c1)ccn2CCc1ccncc1
[13]
  IC50: 177000 nM

## Cc1ccc([N+](=O)[O-])cc1S(=O)(=O)N(C)N=Cc1csc2ccccc12
[14]
  IC50: > 20000 nM
[15]
  IC50: > 20000 nM

## c1cnc2[nH]c3c(N4CCOCC4)ncnc3c2c1
[11]
  IC50: > 30000 nM

## COc1ccc(N2Cc3cnc(Nc4ccccc4)nc3N(c3ccccc3)C2=O)cc1
[12]
  IC50: 360 nM and 350 nM

## CS(=O)(=O)N1CCC(COc2ccc3ncnc(Nc4ccc(OCc5ccccn5)c(Cl)c4)c3c2)C1 (centres undefined)
[16]
  IC50: 213 nM

## Nc1ncnc(Nc2ccc3c(cnn3Cc3cccc(F)c3)c2)c1C=NNCC(F)(F)F
[17]
  IC50: 52.9 nM

## C[C@@H](Nc1ncnc2ccccc12)c1ccccc1
[18]
  IC50: 86 nM

## C[C@H](Nc1ncnc2[nH]cnc12)C1=C(c2ccccc2)[NH+]([O-])c2cc(F)ccc2C1 (some centres undefined)
[19]
  IC50: 4.64 nM

## COc1cccc(-c2nc(N3CCOCC3)c3oc4ncccc4c3n2)c1
[11]
  IC50: 100 nM

## COc1cc2ncnc(Nc3ccc4[nH]ccc4c3)c2cc1OC
[5]
  IC50: 3 nM

## Cc1nc2c(NC(C)(C)C)nc(Nc3ccc4ncsc4c3)nc2[nH]1
[20]
  inhibition: < 50%

## CSc1nc(-c2ccc(F)cc2)c(-c2ccnc(NC(C)=O)c2)n1CCOCCO
[21]
  IC50: > 100000 nM
[22]
  IC50: > 100000 nM

## COc1cc2ncnc(Nc3ccc(C)c(NC(=O)c4ccccc4)c3)c2cc1OC
[23]
  IC50: 3600 nM

## C[C@@H](Nc1nc[nH]c2nc(-c3ccccc3)cc1-2)c1ccccc1
[18]
  IC50: 10 to 50 nM

## CN(C)CC(=O)N1CCC(Oc2ccc3ncnc(Nc4ccc(OCc5ccccn5)c(Cl)c4)c3c2)CC1
[16]
  IC50: 39 nM

## O=C1Nc2ccccc2C1=Cc1ccc(O)cc1O
[4]
  IC50: < 3900 nM

## CN(C)c1ccc2ncnc(Nc3cccc(Br)c3)c2c1
[24]
  IC50: 120 nM
[25]
  IC50: 84 nM

## COc1cc2c(Nc3cc(NC(=O)c4cccc(N(C)C)c4)ccc3C)ncnc2c(OC)c1OC
[23]
  IC50: 5200 nM

## Nc1cc2ncnc(Nc3cccc(Br)c3)c2cn1
[1]
  IC50: 110 nM

## Cc1cccc(N(C)c2ncnc3[nH]ncc23)c1
[7]
  IC50: > 50000 nM

## CN1CCCC1CCn1cc(C2=C(c3c[nH]c4ccccc34)C(=O)NC2=O)c2ccccc21 (centres undefined)
[26]
  activity: 25%
[27]
  activity: 86%
[28]
  activity: 82%

## COc1cc(O)c2c(=O)c(-c3cccc(Cl)c3)coc2c1
[29]
  IC50: 45200 nM

## CCNC(=O)Nc1nc2nc(NCCCN3CCN(C)CC3)ncc2cc1-c1cc(OC)cc(OC)c1
[6]
  IC50: > 50000 nM

## CC(C)(C)Nc1nc(Nc2ccc3ncsc3c2)nc2[nH]cnc12
[20]
  inhibition: 65 to 80%

## COc1cc(O)c2c(=O)c(-c3cccc(Cl)c3)cn(CCc3ccccc3)c2c1
[29]
  IC50: 4930 nM

## CCNC(=O)Nc1nc2nc(NCCCCN(CC)CC)ncc2cc1-c1cc(OC)cc(OC)c1
[6]
  IC50: > 50000 nM

## COn1c(-c2ccncc2)c(-c2ccc(F)cc2)c2ncccc21
[30]
  IC50: 68 nM

## Cc1oncc1C(=O)Nc1ccc(C(F)(F)F)cc1
[7]
  IC50: 30000 nM
[10]
  IC50: > 100000 nM

## CN(C)CC(=O)N1CCC(Oc2ccc3ncnc(Nc4ccc(OCc5cnccn5)c(Cl)c4)c3c2)CC1
[16]
  IC50: 21 nM

## Cc1cccnc1-c1nc2c(Cl)cccc2cc1CNc1ncnc2[nH]cnc12
[19]
  IC50: 79 nM
